Test results taken from patent publication US9353067B2, “Heterocyclic compounds and uses thereof in the treatment of sexual disorders” (ATIR Holding S.A., priority 2011, dated 2016).
Several values for one entry are separate records, joined by “and”; a condition that tells them apart may be missing. Equal entries are not always repeated.

Assays:
[1] = Transdermal administration of R-55 formulation to pigs, plasma R-55; format: in vivo, White Landrace female pigs
Description: R-55 and related compounds were assayed in the plasma samples using a Waters (USA) Alliance high performance liquid chromatograph coupled with a Waters Micromass ZQ quadruple mass spectrometer (in ESI+ mode) as a detector with Waters Empower chromatographic and mass spectrometric software for chromatographic data acquisition, processing and instrument control.
The tested compound was extracted from plasma using dichloromethane, followed by concentration by evaporating the extract and dissolution in a low volume chromatographic mobile phase.
The instrument was calibrated using plasma spiked with various concentrations of the tested compound. Enrofloxacin (m/z=360.4) was used as an internal standard.
In order to investigate the feasibility of transdermal administration of R-55, the presence of R-55 in plasma was measured following administration to pigs of the exemplary transdermal formulation described in Example 5.
White Landrace female pigs were acclimatized for 5 days prior to application of the formulation. 50 ml of the formulation (containing 500 mg R-55) was applied over a 15×7 cm area of the skin of each pig, in a single dose. In order to facilitate constant transdermal administration for at least 6 hours, a suitable plastic shield, attached by adhesive plaster, was used to cover the whole treated dermal surface area for six hours.
Clinical observations were performed during the six hours following application.
Blood samples were withdrawn from each pig via a jugular vein catheter at the following time points: immediately prior to application (t=0) and 15 minutes, 30 minutes, 45 minutes, 60 minutes, 90 minutes, 2 hours, 4 hours, and 6 hours post-application. All samples were collected in commercially available, EDTA supplemented test-tubes. Blood samples were stored on crushed ice after collection. Plasma was separated by centrifugation (10 minutes at 3000 rotations per minute), within one hour post-sampling. Each plasma sample was divided into two aliquots before freezing. Plasma samples were then stored at −20° C. until being dispatched for LCMS analysis.

[2] = target: Serotonin 5-HT1A receptor (Homo sapiens (Human), UniProt P08908); experiment: Competitive binding, 8-OH-DPAT radioligand
Description: (§1) R-55 (which comprises a 3-hydroxyphenyl moiety) and the structurally related compounds N-108 (2-{[4-(2-ethoxyphenyl)piperazin-1-yl]methyl}quinazolin-4(3H)-one) and B-39 (7-chloro-2-((5,6-dihydro-4-(2-methoxyphenyl)pyridin-1(2H)-yl)methyl)quinazolin-4(3H)-one) were assayed for competitive binding to a variety of receptors, including D4.4 type dopamine receptor, in order to assess their specificity for D4.4 dopamine receptors.
(§2) The receptors were expressed as human recombinant proteins in CHO cells, except for adrenergic α1 and α2 receptors which were expressed in Wistar rat brain and cerebral cortex cells, respectively, and melanocortin MC4 receptor which was expressed in human recombinant HEK-293 cells. Binding was determined using the following radioligands in the presence of various concentrations of the tested compound:
1.5 nM 8-OH-DPAT for serotonin 5-HT1A receptor, and
(§3) The binding assays were performed in accordance with procedures described in the literature (Greengrass & Bremner, 1979; Boyajian & Leslie, 1987; Broadhurst, 1988; Lewis, 2001; Sutton, 1995; Dearry, 1990; Zhou, 1990; Grandy, 1989; Hayes, 1992; Sokoloff, 1990; Van Tol, 1991; Van Tol 1992; Sunahara, 1991; Weinshank, 1991; Schioth, 1996; Schioth 1997; Martin & Humphrey, 1994; May, 2003; Wolf & Schutz, 1997).

[3] = target: D4.4 type dopamine receptor (Homo sapiens (Human), UniProt P21917); experiment: Competitive binding to D4.4 receptor ([3H]-YM-09151-2); settings: human recombinant receptor in CHO cells, [3H]-YM-09151-2 0.3 nM
Description: R-55 (which comprises a 3-hydroxyphenyl moiety) and its isomers L-221 (comprising a 4-hydroxyphenyl moiety) and L-238 (comprising a 2-hydroxyphenyl moiety) were assayed for competitive binding to D2 SHORT and D4.4 type dopamine receptors, in order to assess their efficacy for treating sexual disorders. Both receptor types are expressed as human recombinant proteins in CHO cells, as described, for example, in Jarvis et al. (1973); Van Tol et al. (1991) and Van Tol et al. (1992).
Determination of binding to D4.4 receptor was performed using [^3H]-YM-09151-2 (70-87 Ci/mmol, 0.3 nM), as a radioligand, in the presence of various concentrations of the tested compound. Reactions were carried out in 50 mM TRIS-HCl (pH 7.4) containing 5 mM MgCl2, 5 mM EDTA, 5 mM KCl and 1.5 mM CaCl2, for 60 minutes at 22° C. The reaction was terminated by rapid vacuum filtration onto glass fiber filters. Radioactivity trapped onto the filters was determined (counted) and compared to control values in order to accurately evaluate any interaction of the tested compound(s) with the cloned dopamine D4.4 binding site.

[4] = target: CRF1 receptor (Homo sapiens (Human), UniProt P34998); experiment: Competitive binding, (Tyr0)-CRF radioligand
Description: as §1, §2
0.05 nM)(Tyr^0)-corticotropin releasing factor (CRF) for corticotropin releasing factor CRF1 receptor,
as §3

[5] = Solubility of R-55 in solvents for transdermal formulation; format: physicochemical
Description: To this effect, a stable oil-in-water emulsion was developed. Various solvents were tested in order to achieve an R-55 concentration of up to 20 mg/gram in the lipid phase of the emulsion, in order to achieve a total concentration of up to 10 mg/gram R-55.
The following organic solvents which are used in transdermal formulations were tested: […]

[6] = target: Dopamine D2S receptor (Homo sapiens (Human), UniProt P14416); experiment: Competitive binding, spiperone radioligand
Description: as §1, §2
(§4) 0.16 nM, 0.7 nM and 1.2 nM spiperone, respectively, for dopamine D2S, D3 and D4.4 receptors,
as §3

[7] = target: Dopamine D3 receptor (Homo sapiens (Human), UniProt P35462); experiment: Competitive binding, spiperone radioligand
Description: as §1, §2, §4, §3

[8] = target: Dopamine D4.4 receptor (Homo sapiens (Human), UniProt P21917); experiment: Competitive binding, spiperone radioligand
Description: as §1, §2, §4, §3

Chain of Dopamine D4.4 receptor (P21917 whole entry): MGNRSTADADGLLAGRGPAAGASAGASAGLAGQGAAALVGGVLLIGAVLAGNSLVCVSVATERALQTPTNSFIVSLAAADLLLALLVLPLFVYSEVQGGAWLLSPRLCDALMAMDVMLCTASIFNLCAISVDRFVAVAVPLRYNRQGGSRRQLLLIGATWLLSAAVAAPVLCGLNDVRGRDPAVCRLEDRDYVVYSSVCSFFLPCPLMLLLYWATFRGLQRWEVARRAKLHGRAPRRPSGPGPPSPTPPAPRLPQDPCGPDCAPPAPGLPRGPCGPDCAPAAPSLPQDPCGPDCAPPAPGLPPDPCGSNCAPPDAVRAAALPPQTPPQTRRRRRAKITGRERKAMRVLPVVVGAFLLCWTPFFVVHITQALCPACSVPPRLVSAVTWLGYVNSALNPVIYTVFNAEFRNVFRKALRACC
Chain of D4.4 type dopamine receptor (P21917 whole entry): as above
Chain of CRF1 receptor (P34998 24-415): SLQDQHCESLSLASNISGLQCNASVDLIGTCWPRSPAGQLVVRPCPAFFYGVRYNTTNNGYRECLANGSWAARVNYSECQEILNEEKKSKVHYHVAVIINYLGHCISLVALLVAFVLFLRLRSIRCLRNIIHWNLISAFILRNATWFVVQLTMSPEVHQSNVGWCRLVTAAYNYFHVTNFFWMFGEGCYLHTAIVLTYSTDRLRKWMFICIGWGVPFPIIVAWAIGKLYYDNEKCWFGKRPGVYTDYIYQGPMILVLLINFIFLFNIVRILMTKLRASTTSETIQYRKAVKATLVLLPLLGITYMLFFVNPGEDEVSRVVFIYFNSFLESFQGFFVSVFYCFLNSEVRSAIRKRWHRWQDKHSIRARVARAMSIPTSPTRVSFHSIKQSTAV
Chain of Dopamine D3 receptor (P35462 whole entry): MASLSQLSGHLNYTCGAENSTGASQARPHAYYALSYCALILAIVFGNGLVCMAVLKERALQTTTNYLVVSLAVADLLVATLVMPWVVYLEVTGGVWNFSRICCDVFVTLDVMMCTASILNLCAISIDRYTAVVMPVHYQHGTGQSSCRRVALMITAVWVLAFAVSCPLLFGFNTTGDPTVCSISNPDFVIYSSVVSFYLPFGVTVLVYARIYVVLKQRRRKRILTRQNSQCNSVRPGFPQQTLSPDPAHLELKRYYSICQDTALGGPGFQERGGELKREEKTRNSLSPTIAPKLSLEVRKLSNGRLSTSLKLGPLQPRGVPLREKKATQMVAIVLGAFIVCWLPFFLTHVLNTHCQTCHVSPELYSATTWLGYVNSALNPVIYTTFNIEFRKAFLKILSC
Chain of Serotonin 5-HT1A receptor (P08908 whole entry): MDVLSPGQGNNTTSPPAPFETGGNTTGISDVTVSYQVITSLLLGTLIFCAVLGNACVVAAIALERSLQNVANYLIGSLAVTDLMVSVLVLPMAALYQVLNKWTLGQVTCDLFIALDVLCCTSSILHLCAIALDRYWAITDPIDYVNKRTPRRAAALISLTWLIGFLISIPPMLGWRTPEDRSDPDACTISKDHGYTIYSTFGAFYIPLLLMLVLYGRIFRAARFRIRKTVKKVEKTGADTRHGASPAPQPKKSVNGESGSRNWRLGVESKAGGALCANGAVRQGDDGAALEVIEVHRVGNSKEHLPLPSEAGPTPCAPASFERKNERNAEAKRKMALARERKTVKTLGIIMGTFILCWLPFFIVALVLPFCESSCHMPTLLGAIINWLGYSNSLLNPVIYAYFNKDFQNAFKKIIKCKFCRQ
Chain of Dopamine D2S receptor (P14416 other isoform, or with tags, fused parts or gaps): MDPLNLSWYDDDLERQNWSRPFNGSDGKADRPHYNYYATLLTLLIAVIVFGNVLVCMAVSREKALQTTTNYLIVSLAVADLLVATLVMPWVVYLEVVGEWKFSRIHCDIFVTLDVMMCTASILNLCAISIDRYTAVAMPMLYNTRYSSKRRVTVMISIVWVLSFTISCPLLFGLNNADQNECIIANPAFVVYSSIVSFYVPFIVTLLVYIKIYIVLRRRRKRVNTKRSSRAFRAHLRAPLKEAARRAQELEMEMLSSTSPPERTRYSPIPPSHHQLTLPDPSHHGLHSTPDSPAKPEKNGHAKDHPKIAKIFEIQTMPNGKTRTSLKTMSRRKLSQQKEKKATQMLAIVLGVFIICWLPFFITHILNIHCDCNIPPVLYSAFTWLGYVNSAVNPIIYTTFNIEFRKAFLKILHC

## O=c1[nH]c(CN2CCN(c3cccc(O)c3)CC2)nc2ccccc12 [Compound R-55, 2-((4-(3-hydroxyphenyl)piperazin-1-yl)methyl)quinazolin-4-one]
[1]; female, White Landrace, pig, plasma, topical, 500 mg, transdermal 500 mg R-55 (50 ml formulation), 0 minutes (immediately prior to application), individual animals #1-#4
  concentration at 0 min: 0 ng/mL
[1]; female, White Landrace, pig, plasma, topical, 500 mg, transdermal 500 mg R-55, 30 minutes after application, individual animals #1-#4
  concentration at 30 min: 16.7 ng/mL
[1]; female, White Landrace, pig, plasma, topical, 500 mg, transdermal 500 mg R-55, 4 hours after application, individual animals #1-#4
  concentration at 4 h: 0 ng/mL
[1]; female, White Landrace, pig, plasma, topical, 500 mg, transdermal 500 mg R-55, 6 hours after application, individual animals #1-#4
  concentration at 6 h: 0 ng/mL
[1]; transdermal 500 mg R-55 (50 ml formulation), 0 minutes (immediately prior to application), individual animals #1-#4
  R-55 concentration (plasma): 0 ng/mL
[1]; transdermal 500 mg R-55, 15 minutes after application, individual animals #1-#4
  R-55 concentration (plasma): 0 ng/ml (3×) and 10.8 ng/ml
[1]; transdermal 500 mg R-55, 30 minutes after application, individual animals #1-#4
  R-55 concentration (plasma): 19.9 ng/mL and 11.8 ng/mL and 15.2 ng/mL
[1]; transdermal 500 mg R-55, 45 minutes after application, individual animals #1-#4
  R-55 concentration (plasma): 0 ng/ml (3×) and 10.5 ng/ml
[1]; transdermal 500 mg R-55, 60 minutes after application, individual animals #1-#4
  R-55 concentration (plasma): 10.3 ng/ml and 0 ng/ml (2×) and 10.7 ng/ml
[1]; transdermal 500 mg R-55, 90 minutes after application, individual animals #1-#4
  R-55 concentration (plasma): 16.8 ng/ml and 0 ng/ml (2×) and 10.1 ng/ml
[1]; transdermal 500 mg R-55, 2 hours after application, individual animals #1-#4
  R-55 concentration (plasma): 14.8 ng/mL and 11.8 ng/mL and 0 ng/mL and 10.7 ng/mL
[1]; transdermal 500 mg R-55, 4 hours after application, individual animals #1-#4
  R-55 concentration (plasma): 0 ng/mL
[1]; transdermal 500 mg R-55, 6 hours after application, individual animals #1-#4
  R-55 concentration (plasma): 0 ng/mL
[1]; transdermal 500 mg R-55, six hours following application
  Clinical observations: No clinical abnormalities were observed
[1]; transdermal administration
  duration of relatively stable concentration of R-55 in plasma after administration: at least 2 hours
[2]
  Competitive binding (%) at 5 μM of tested compound: 7%
[3]
  IC50: 500 nM
[4]
  Competitive binding (%) at 5 μM of tested compound: 3%
[5]; propylene glycol (PG)
  solubility of R-55 in propylene glycol: less than 5 mg/gram
[5]; weight ratio of 4:1 PG:PC
  solubility of R-55 in propylene glycol with phosphatidyl choline: 8 mg/gram
[6]
  Competitive binding (%) at 5 μM of tested compound: 7%
[7]
  Competitive binding (%) at 5 μM of tested compound: 5%
[8]; Dopamine D4.4 receptor, 5 μM
  Competitive binding (%) at 5 μM of tested compound: 31%
[8]; Table 8
  binding affinity to the D4.4 receptor (in words): high binding affinity
